Values after ≈ are worked out from the molar mass of the structure shown. Like-named read-outs stand apart in the source and are kept apart here.
Assays:
in vitro [1] = conditions: dog
[2] = tested on: S. epidermidis ATCC 35984; assay: Broth microdilution MIC, S. epidermidis ATCC 35984; type: cell-based; conditions: for MIC: Staphylococcus epidermidis
Experimental: (§1) Antibacterial tests were carried out by the broth microdilution method on a panel of eight Gram-positive bacterial strains, using vancomycin and teicoplanin as reference compounds.

E. faecalis ATCC 29212 = assay: Broth microdilution MIC, E. faecalis ATCC 29212; type: cell-based; conditions: for MIC: Enterococcus faecalis
Experimental: as §1

[3] = tested on: E. faecalis ATCC 51,299 VanB; assay: Broth microdilution MIC, E. faecalis ATCC 51,299 VanB; type: cell-based; conditions: for MIC: Enterococcus faecalis, ATCC51, read-out: In Vitro MIC
Experimental: as §1

[4] = tested on: S. aureus MSSA ATCC 29213; assay: Broth microdilution MIC, S. aureus MSSA ATCC 29213; type: cell-based; conditions: for MIC: Staphylococcus aureus, read-out: In Vitro MIC
Experimental: as §1

E. faecalis 15,376 VanA = assay: Broth microdilution MIC, E. faecalis 15,376 VanA; type: cell-based; conditions: for MIC: Enterococcus faecalis, read-out: In Vitro MIC
Experimental: as §1

[5] = tested on: Influenza A/H3N2 (A/Victoria/361/11); assay: Influenza CPE reduction in MDCK cells, MTS assay, A/H3N2; type: cell-based; conditions: Influenza A virus, H3N2; MDCK cells; A/Victoria/361/11; inhibition of virus-induced CPE by MTS assay; read-out: Antiviral EC50 Influenza A/H3N2
influenza A or B viruses = assay: Anti-influenza virus activity in MDCK cells, MTS assay, overall for the three influenza A or B viruses; type: cell-based, Influenza A and B viruses
[6] = tested on: Influenza A/H1N1 (A/Ned/378/05); assay: Influenza CPE reduction in MDCK cells, MTS assay, A/H1N1; type: cell-based; conditions: Influenza A virus, H1N1; MDCK cells; A/Ned/378/05; inhibition of virus-induced CPE by MTS assay; read-out: Antiviral EC50 Influenza A/H1N1
[7] = tested on: Influenza B (B/Ned/537/05); assay: Influenza CPE reduction in MDCK cells, MTS assay, influenza B; type: cell-based; conditions: Influenza B virus, inhibition of virus-induced CPE by MTS assay, read-out: Antiviral EC50 Influenza B
S. epidermidis mecA = assay: Broth microdilution MIC, S. epidermidis mecA; type: cell-based; conditions: for MIC: Staphylococcus epidermidis, read-out: In Vitro MIC
Experimental: as §1

[8] = tested on: S. aureus MRSA ATCC 33591; assay: Broth microdilution MIC, S. aureus MRSA ATCC 33591; type: cell-based; conditions: for MIC: Staphylococcus aureus, read-out: In Vitro MIC
Experimental: as §1

B. subtilis ATCC 6633 = assay: Broth microdilution MIC, B. subtilis ATCC 6633; type: cell-based; conditions: for MIC: Bacillus subtilis
Experimental: as §1

MDCK cells = conditions: read-out: CC50 (50% cytotoxic concentration), mock-infected, MTS cell viability assay, three days
[9] = tested on: herpes simplex virus type 2 (HSV-2, strain G); assay: CPE reduction, MTS assay, HSV-2 in HEL cells; type: cell-based; conditions: Human alphaherpesvirus 2, protection against virus-induced CPE, read-out: Antiviral EC50 HSV-2
in vitro [10] = conditions: African green monkey
in vitro [11] = conditions: human
[12] = tested on: vaccinia virus (strain Lederle); assay: microbe, parasite or virus in culture; type: cell-based; conditions: Orthopoxvirus vaccinia, HEL, read-out: Antiviral EC50 Vaccinia Virus
[13] = tested on: herpes simplex virus type 1 (HSV-1 strain KOS); assay: CPE reduction, MTS assay, HSV-1 in HEL cells; type: cell-based; conditions: Human alphaherpesvirus 1, protection against virus-induced CPE, read-out: Antiviral EC50 HSV-1
in vitro [14] = conditions: human; remark: listed apart in the source
[15] = tested on: Vero, African Green monkey kidney cells; conditions: read-out: CC50 Vero; mock-infected Vero cells, MTS assay
[16] = tested on: HEL, human embryonic lung fibroblast cells; conditions: read-out: CC50 HEL; mock-infected HEL cells, MTS assay
[17] = tested on: HeLa, human cervix carcinoma cells; conditions: read-out: CC50 HeLa; mock-infected HeLa cells, MTS assay
A/PR/8/34 virus = type: cell-based, Influenza A virus
[18] = tested on: thymidine kinase deficient HSV-1/TK- mutant; assay: microbe, parasite or virus in culture; type: cell-based, herpes simplex virus type 1; conditions: Human alphaherpesvirus 1, HEL, read-out: Antiviral EC50 HSV-1/TK-
[19] = ATCC35984, read-out: In Vitro MIC
[20] = ATCC29212, read-out: In Vitro MIC
[21] = ATCC6633, read-out: In Vitro MIC
[22] = S. aureus MSSA ATCC 29213, broth microdilution

CCCCCCS(=O)(=O)NC1C(=O)NC(CC(N)=O)C(=O)NC2C(=O)NC3C(=O)NC(C(=O)NC(C(=O)O)c4cc(O)cc(O)c4-c4cc3ccc4O)C(O)c3ccc(c(Cl)c3)Oc3cc2cc(c3O)Oc2ccc(cc2Cl)C1O (stereo not drawn) [Compound 8]
CC50 (in vitro [1]): 100 µM
MIC [2, 19]: 32 µg/mL (≈ 27.5 µM)
MIC (E. faecalis ATCC 29212; [20]): 32 µg/mL (≈ 27.5 µM)
MIC [3]: 128 µg/mL (≈ 110 µM)
MIC [4]: 256 µg/mL (≈ 220 µM)
MIC (E. faecalis 15,376 VanA): 256 µg/mL (≈ 220 µM)
EC50 [5]: > 100 µM
anti-influenza virus activity (in words) (influenza A or B viruses): inactive
EC50 [6]: > 100 µM
EC50 [7]: > 100 µM
MIC (S. epidermidis mecA): 64 µg/mL (≈ 54.9 µM)
MIC [8]: 256 µg/mL (≈ 220 µM)
MIC (B. subtilis ATCC 6633; [21]): 32 µg/mL (≈ 27.5 µM)

CCCCCCCCCCOCc1cn(CCOCCOCCOCCOCc2cn(CCNC(=O)[C@H]3NC(=O)[C@H]4NC(=O)[C@H](NC(=O)[C@@H]5NC(=O)[C@H](CC(N)=O)NC(=O)[C@H](N)[C@H](O)c6ccc(c(Cl)c6)Oc6cc5cc(c6O)Oc5ccc(cc5Cl)[C@H]4O)c4ccc(O)c(c4)-c4c(O)cc(O)cc43)nn2)nn1 [Compound 11]
MIC [2, 19]: 256 µg/mL (≈ 166 µM)
CC50 (MDCK cells): ≥ 20 µM
MIC (E. faecalis ATCC 29212; [20]): 128 µg/mL (≈ 83.2 µM)
MIC [3]: 256 µg/mL (≈ 166 µM)
MIC [4]: 256 µg/mL (≈ 166 µM)
MIC (E. faecalis 15,376 VanA): 256 µg/mL (≈ 166 µM)
MIC (S. epidermidis mecA): 256 µg/mL (≈ 166 µM)
MIC [8]: 256 µg/mL (≈ 166 µM)
MIC (B. subtilis ATCC 6633; [21]): 32 µg/mL (≈ 20.8 µM)

Nc1nc(O)c2ncn(COC(CO)CO)c2n1 [Ganciclovir]
EC50 [9]: 0.03 µM
CC50 (in vitro [10]): > 100 µM
CC50 (in vitro [11]): > 100 µM
EC50 [12]: > 100 µM
EC50 [13]: 0.1 µM
CC50 (in vitro [14]): > 100 µM

CCCCCCS(=O)(=O)NCCNC(=O)[C@H]1NC(=O)[C@H]2NC(=O)[C@H](NC(=O)[C@@H]3NC(=O)[C@H](CC(N)=O)NC(=O)[C@H](N)[C@H](O)c4ccc(c(Cl)c4)Oc4cc3cc(c4O)Oc3ccc(cc3Cl)[C@H]2O)c2ccc(O)c(c2)-c2c(O)cc(O)cc21 [Compound 13]
CC50 (in vitro [1]): > 100 µM
MIC [2, 19]: 128 µg/mL (≈ 106 µM)
MIC (E. faecalis ATCC 29212; [20]): 64 µg/mL (≈ 53 µM)
MIC [3]: 128 µg/mL (≈ 106 µM)
MIC [4]: 256 µg/mL (≈ 212 µM)
MIC (E. faecalis 15,376 VanA): 256 µg/mL (≈ 212 µM)
EC50 [5]: 14 µM
anti-influenza virus activity (in words) (influenza A or B viruses): only slightly active
EC50 [6]: 34 µM
EC50 [7]: > 100 µM
MIC (S. epidermidis mecA): 128 µg/mL (≈ 106 µM)
MIC [8]: 256 µg/mL (≈ 212 µM)
MIC (B. subtilis ATCC 6633; [21]): 256 µg/mL (≈ 212 µM)

CN[C@H](CC(C)C)C(=O)N[C@H]1C(=O)N[C@@H](CC(N)=O)C(=O)N[C@H]2C(=O)N[C@H]3C(=O)N[C@H](C(=O)N[C@H](C(=O)O)c4cc(O)cc(O)c4-c4cc3ccc4O)[C@H](O)c3ccc(c(Cl)c3)Oc3cc2cc(c3O[C@@H]2O[C@H](CO)[C@@H](O)[C@H](O)[C@H]2O[C@H]2C[C@](C)(N)[C@H](O)[C@H](C)O2)Oc2ccc(cc2Cl)[C@H]1O [VAN, vancomycin]
MIC [2, 19]: 2 µg/mL (≈ 1.38 µM)
MIC (E. faecalis ATCC 29212; [20]): 1 µg/mL (≈ 0.69 µM)
MIC [3]: 128 µg/mL (≈ 88.3 µM)
MIC [4]: 0.5 µg/mL (≈ 0.345 µM)
MIC (E. faecalis 15,376 VanA): 256 µg/mL (≈ 177 µM)
MIC (S. epidermidis mecA): 4 µg/mL (≈ 2.76 µM)
MIC [8]: 0.5 µg/mL (≈ 0.345 µM)
MIC (B. subtilis ATCC 6633; [21]): 0.5 µg/mL (≈ 0.345 µM)

CCCCSC1=C(SCCCC)C(=O)N(CCOCCOCCOCCOCc2cn(CCNC(=O)[C@H]3NC(=O)[C@H]4NC(=O)[C@H](NC(=O)[C@@H]5NC(=O)[C@H](CC(N)=O)NC(=O)[C@H](N)[C@H](O)c6ccc(c(Cl)c6)Oc6cc5cc(c6O)Oc5ccc(cc5Cl)[C@H]4O)c4ccc(O)c(c4)-c4c(O)cc(O)cc43)nn2)C1=O [Compound 12]
MIC [2, 19]: 128 µg/mL (≈ 81.4 µM)
CC50 (MDCK cells): 100 µM
MIC (E. faecalis ATCC 29212; [20]): 128 µg/mL (≈ 81.4 µM)
MIC [3]: 256 µg/mL (≈ 163 µM)
MIC [4]: 256 µg/mL (≈ 163 µM)
MIC (E. faecalis 15,376 VanA): 256 µg/mL (≈ 163 µM)
anti-influenza virus activity (in words) (influenza A or B viruses): only slightly active
MIC (S. epidermidis mecA): 256 µg/mL (≈ 163 µM)
MIC [8]: 256 µg/mL (≈ 163 µM)
MIC (B. subtilis ATCC 6633; [21]): 256 µg/mL (≈ 163 µM)

CCCCSC1=C(SCCCC)C(=O)N(CCOCCOCCOCCOCc2cn(C3C(=O)NC(CC(N)=O)C(=O)NC4C(=O)NC5C(=O)NC(C(=O)NC(C(=O)O)c6cc(O)cc(O)c6-c6cc5ccc6O)C(O)c5ccc(c(Cl)c5)Oc5cc4cc(c5O)Oc4ccc(cc4Cl)C3O)nn2)C1=O (stereo not drawn) [Compound 7]
MIC ([2]; ATCC35984, S. epidermidis ATCC 35984, broth microdilution, read-out: In Vitro MIC): 32 µg/mL (≈ 20.9 µM)
CC50 (MDCK cells): 18 µM
CC50 [15]: > 100 µM
MIC (E. faecalis ATCC 29212; ATCC29212, E. faecalis ATCC 29212, broth microdilution, read-out: In Vitro MIC): 32 µg/mL (≈ 20.9 µM)
MIC [3]: 256 µg/mL (≈ 167 µM)
CC50 [16]: > 100 µM
MIC [4, 22]: 256 µg/mL (≈ 167 µM)
MIC (E. faecalis 15,376 VanA): 256 µg/mL (≈ 167 µM)
CC50 [17]: > 100 µM
anti-influenza virus activity (in words) (influenza A or B viruses): robust activity
MIC (S. epidermidis mecA): 32 µg/mL (≈ 20.9 µM)
MIC [8]: 256 µg/mL (≈ 167 µM)
virus-induced cytopathic effect (CPE) upon microscopic inspection (A/PR/8/34 virus): no virus-induced cytopathic effect (CPE) was observed
MIC (B. subtilis ATCC 6633; ATCC6633, B. subtilis ATCC 6633, broth microdilution, read-out: In Vitro MIC): 32 µg/mL (≈ 20.9 µM)

teicoplanin [reference compound]
In Vitro MIC ([2]; S. epidermidis ATCC 35984, broth microdilution): 4 µg/mL
In Vitro MIC (E. faecalis ATCC 29212; E. faecalis ATCC 29212, broth microdilution): 1 µg/mL
In Vitro MIC ([3]; E. faecalis ATCC 51,299 VanB, broth microdilution): 0.5 µg/mL
In Vitro MIC [4, 22]: 0.5 µg/mL
In Vitro MIC (E. faecalis 15,376 VanA; E. faecalis 15,376 VanA, broth microdilution): 256 µg/mL
In Vitro MIC (S. epidermidis mecA; S. epidermidis mecA, broth microdilution): 16 µg/mL
In Vitro MIC ([8]; S. aureus MRSA ATCC 33591, broth microdilution): 0.5 µg/mL
In Vitro MIC (B. subtilis ATCC 6633; B. subtilis ATCC 6633, broth microdilution): 0.5 µg/mL

CC(=O)N[C@H]1[C@H]([C@H](O)[C@H](O)CO)OC(C(=O)O)=C[C@@H]1N=C(N)N [Zanamivir, reference compound]
CC50 (in vitro [1]): > 100 µM
EC50 [5]: 9 µM
EC50 [6]: 0.4 µM
EC50 [7]: 4.5 µM

Nc1ccn(C[C@@H](CO)OCP(=O)(O)O)c(=O)n1 [Cidofovir]
EC50 [9]: 1 µM
CC50 (in vitro [10]): > 250 µM
CC50 (in vitro [11]): > 250 µM
EC50 [18]: 5.8 µM
EC50 [12]: 37 µM
EC50 [13]: 2.4 µM
CC50 (in vitro [14]): > 250 µM

Nc1nc2c(ncn2COCCO)c(=O)[nH]1 [Aciclovir]
EC50 [9]: 0.05 µM
CC50 (in vitro [10]): > 250 µM
CC50 (in vitro [11]): > 250 µM
EC50 [18]: 146 µM
EC50 [12]: > 250 µM
EC50 [13]: 2.4 µM
CC50 (in vitro [14]): > 250 µM
